We go through 1 compound from patent US9433607B2, “Composition for prevention or treatment of cancer comprising N-methylenenaphtho[2,1-b]furan-2-carbohydrazide derivatives as an active ingredient” (KOREA RESEARCH INSTITUTE OF BIOSCIENCE AND BIOTECHNOLOGY, priority 2012, dated 2016).

Molecules are shown by their SMILES.

Assay [1] concerns purified tubulin. The experiment in a line: In vitro tubulin polymerization, degree of turbidity. The class given is biochemical. The note with it: 5 μM, purified tubulin and GTP, 340 nm. As for the experimental part: To measure the polymerization of tubulin in vitro, the buffer containing the purified tubulin and GTP was treated with ethyl(2-methyl-3{(E)-[(naphtho[2,1-b]furan-2-ylcarbonyl)hydrazono]methyl}-1H-indole-1-yl)acetate at the concentration of 5 μM. DMSO, and the equivalent Taxol and vinblastine were used as the controls. The polymerization of tubulin into microtubules was determined if the degree of turbidity was 340 nm.

Assay [2] has as its system HCT116. Description: Anti-proliferative MTT assay, HCT116. In kind it is cell-based. The note with it: Homo sapiens, HCT-116, 96 h, HCT116, Large intestine, 4 days. As for the experimental part: (§1) Various cancer cell lines (rectal cancer, prostate cancer, breast cancer, lung cancer, stomach cancer, liver cancer, leukemia, brain cancer, and glioma cell lines) were cultured in microtiter plate (1-3×10^3 cells/well), to which ethyl(2-methyl-3{(E)-[(naphtho[2,1-b]furan-2-ylcarbonyl)hydrazono]methyl}-1H-indole-1-yl)acetate was treated. The culture continued for 4 days. Cytotoxicity was investigated by MTT assay by the same manner as described in Example <1-2>. IC50 was calculated by long-dose response curve. The data presents the mean value obtained from the assay performed in triplicate.
Background: Tetrazolium dyes change colour on reduction, which living cells bring about.

Assay [3] relates to HL60. The experiment in a line: Anti-proliferative MTT assay, HL60. As to conditions: Homo sapiens, HL-60, 96 h, HL60, Blood, 4 days. The class given is cell-based. As for the experimental part:
as §1

For assay [4], the system named is PC-3. The experiment in a line: Anti-proliferative MTT assay, PC-3. The class given is cell-based. As to conditions: Homo sapiens, 96 h, PC-3, Prostate, 4 days. As for the experimental part:
as §1

Assay [5] deals with MDA-MB-231. The experiment in a line: Anti-proliferative MTT assay, MDA-MB-231. As to conditions: Homo sapiens, 96 h, MDA-MB-231, Breast, 4 days. The class given is cell-based. As for the experimental part:
as §1

For assay [6], the system named is NCl-H460. Description: Anti-proliferative MTT assay, NCl-H460. In kind it is cell-based. As to conditions: 96 h, NCl-H460, Lung, 4 days. As for the experimental part: as §1
Assay [7] has as its system HeLa cell line. Description: Anti-proliferative activity in HeLa cells (MTT assay). The note with it: Homo sapiens. The class given is cell-based. As for the experimental part:
Particularly, HeLa cell line (ATCC, USA) was treated with the compounds of Table 1 respectively, and then IC50 (the half maximal inhibitory concentration) was investigated (Table 1).
HeLa cells were treated with 100 nM, 250 nM, 500 nM and 1 μM of ethyl(2-methyl-3{(E)-[(naphtho[2,1-b]furan-2-ylcarbonyl)hydrazono]methyl}-1H-indole-1-yl)acetate or DMSO for 4 days. Then, the cell growth was confirmed by MTT assay. All the obtained numbers were calculated by normalizing the value of Day 0. The data presents the mean value obtained from the assay performed in triplicate.
Particularly, HeLa cells were distributed in a 96-well plate at the density of 2×10^3 cells/well. The cells were treated with DMSO or the compound of the present invention, to which MTT reagent was added at the concentration of 10 μl/well. 2 hours later, OD450 was measured, which became the value of Day 0. 4 days later, MTT reagent was added thereto again. 2 hours later, OD450 was measured. The data presents the mean value obtained from the assay performed in triplicate.

Assay [8] relates to SNU-484. Description: Anti-proliferative MTT assay, SNU-484. The class given is cell-based. As to conditions: 96 h, SNU-484, Stomach, 4 days. As for the experimental part:
as §1

The test system of assay [9] is K562/ADR. The experiment in a line: Cytotoxicity MTT assay, multi-drug resistant K562/ADR. The class given is cell-based. As for the experimental part: (§2) Particularly, K562, MCF7 (Bio-Evaluation Center, Korea Research Institute of Bioscience and Biotechnology, Korea), and the multi-drug resistant cell lines thereof, K562/ADR and MCF7/ADR (Bio-Evaluation Center, Korea Research Institute of Bioscience and Biotechnology, Korea) were cultured in microtiter plate (1-3×10^3 cells/well). Then, the cells were treated with ethyl(2-methyl-3{(E)-[(naphtho[2,1-b]furan-2-ylcarbonyl)hydrazono]methyl}-1H-indole-1-yl)acetate, doxorubicin, or taxol, followed by culture for 4 days. Cytotoxicity was investigated by MTT assay by the same manner as described in Example <1-2>. IC50 was calculated by long-dose response curve. The data presents the mean value obtained from the assay performed in triplicate (Table 3).
(§3) The resistance factor of the multi-drug resistant cell line indicates the ratio of IC50 of the multi-drug resistant cell line to IC50 of the parent cell line showing no resistance, which was presented as a number in the bracket.

In assay [10] the test system is MCF7/ADR. Description: Cytotoxicity MTT assay, multi-drug resistant MCF7/ADR. The class given is cell-based. As for the experimental part:
as §2, §3

For assay [11], the system named is Cdc25C, Cyclin B1, and Plk1 (Polo-like kinase 1). The experiment in a line: Immunoblotting of proteins regulating cell division. The class given is cell-based. As to conditions: HeLa cells, 17 hours. The source says: The effect of ethyl(2-methyl-3{(E)-[(naphtho[2,1-b]furan-2-ylcarbonyl)hydrazono]methyl}-1H-indole-1-yl)acetate on Cdc25C, Cyclin B1, and Plk1 (Polo-like kinase 1), the proteins regulating cell division, was investigated. When Cdc25C is activated in the course of cell division, Cdc25C is hyperphosphorylated so that its movement on SDS-PAGE is slowed down. Based on that principal, Cdc25C activation was investigated. Referring that the expressions of Cyclin B1 and Plk1 are differently regulated in each stage of cell cycle, the expression of each protein was measured. The levels of Cyclin B1 and Plk1 were the lowest in G1 phase.
HeLa cells were treated with DMSO, nocodazole (NOC), or ethyl(2-methyl-3{(E)-[(naphtho[2,1-b]furan-2-ylcarbonyl)hydrazono]methyl}-1H-indole-1-yl)acetate for 17 hours. The cells were harvested, followed by immunoblotting using cyclin B1, Cdc25C, Plk1, and GAPDH specific antibodies. GAPDH was used as a loading control.

Assay [12] has as its system A-172. Description: Anti-proliferative MTT assay, A-172. As to conditions: Homo sapiens, 96 h, A-172, Brain, 4 days. In kind it is cell-based. As for the experimental part: as §1
Assay [13] deals with HT-29. Description: Anti-proliferative MTT assay, HT-29. The note with it: Homo sapiens, 96 h, HT-29, Large intestine, 4 days. In kind it is cell-based. As for the experimental part: as §1
In assay [14] the test system is HepG2. Description: Anti-proliferative MTT assay, HepG2. In kind it is cell-based. The note with it: Homo sapiens, 96 h, HepG2, Liver, 4 days. As for the experimental part: as §1

As usually defined, the IC50 is the concentration at which inhibition is half-maximal. Read a high IC50 as lower potency. For the compound `CCOC(=O)Cn1c(C)c(/C=N/NC(=O)c2cc3c(ccc4ccccc43)o2)c2ccccc21` [STK899704], the “degree of turbidity (tubulin polymerization) compared with Taxol” value in [1] was “the degree of turbidity was lower”. Further, the IC50 in assay [2] turned out to be 717 nM; in assay [3] it was 563 nM; in assay [4], 650 nM; in assay [5] it was 543 nM; in assay [6] it was 806 nM; in [7] (96 h, HeLa, Cervix, MTT, 4 days) it was 260 nM. The IC50 was found to be 260 nM in assay [7] (HeLa cell line); 221 nM in [8]; 285000 nM in assay [9] (Homo sapiens, 96 h, K562/ADR, MTT, 4 days); 225000 nM in [10] (Homo sapiens, NCI/ADR-RES, 96 h, MCF7/ADR, MTT, 4 days); 603 nM in assay [12]; 701 nM in assay [13]. Also, 820 nM corresponded to half-maximal inhibition in assay [14] (IC50). For the same compound, the “resistance factor (number in the bracket)” value in assay [9] (ratio of IC50 of K562/ADR to IC50 of parent K562) is 0.6; in [10] (ratio of IC50 of MCF7/ADR to IC50 of parent MCF7) it was 0.2. In assay [11], the “effect on Cdc25C, cyclin B1 and Plk1 (immunoblotting)” value was “Cdc25C was phosphorylated and cyclin B1 and Plk1 were accumulated”.
